The source made the active and inactive calls. The calls are words filed in the database; no cut-off is given here. Where a SMILES comes first, the peptide text is derived from it. Bridges are numbered along the chain shown (N, C = ends). [ ]: non-standard residue; d: D form. Phe(4-F) = N[C@@H](Cc1ccc(F)cc1)C(=O)O; d2Nal = N[C@H](Cc1ccc2ccccc2c1)C(=O)O; S5 = C=CCCC[C@](C)(N)C(=O)O
Columns and labels:
HCT-116 [1] = experiment: Cytotoxicity against human HCT116 cells assessed as effect on cell membrane preincubated overnight measured after 4 hrs post stimulation by LDH release assay relative to control; assay type: cell-based; conditions: hct-116, 4 h
HCT-116 [2] = experiment: Cytotoxicity against human HCT116 cells assessed as effect on cell membrane preincubated overnight measured after 4 hrs post stimulation by LDH release assay; assay type: cell-based
[3] = target: Eukaryotic translation initiation factor 4E (Homo sapiens) (UniProt P06730); experiment: Binding affinity to eIF4E (unknown origin) using FAM-labelled peptide as substrate in presence of Tween20 by fluorescence polarization assay
[4] = system: GTPase KRas (Homo sapiens), P01116 [G12D]; experiment: (§1) Binding affinity to KRAS G12D mutant (unknown origin) using FAM-labelled peptide as substrate in absence of Tween20 by fluorescence polarization assay
[5] = Aggregation property of FAM-labelled peptides assessed as diameter of aggregate size at 10 uM by dynamic light scattering analysis; assay type: physicochemical
[6] = target: E3 ubiquitin-protein ligase Mdm2 (Homo sapiens) (UniProt Q00987); experiment: Binding affinity to MDM2 (unknown origin) using FAM-labelled peptide as substrate in absence of Tween20 by fluorescence polarization assay
[7] = Aggregation property of peptides assessed as stable aggregates at 10 uM by dynamic light scattering analysis; assay type: physicochemical
[8] = target: E3 ubiquitin-protein ligase Mdm2 (Homo sapiens) (UniProt Q00987); experiment: Binding affinity to MDM2 (unknown origin) using FAM-labelled peptide as substrate in presence of Tween20 by fluorescence polarization assay
[9] = target: Eukaryotic translation initiation factor 4E (Homo sapiens) (UniProt P06730); experiment: Binding affinity to eIF4E (unknown origin) using FAM-labelled peptide as substrate in absence of Tween20 by fluorescence polarization assay
[10] = target: Eukaryotic translation initiation factor 4E (Homo sapiens) (UniProt P06730); experiment: Binding affinity to eIF4E (unknown origin) in presence of Fam-labelled peptides at 1 uM by surface plasmon resonance analysis
[11] = target: Eukaryotic translation initiation factor 4E (Homo sapiens) (UniProt P06730); experiment: Binding affinity to eIF4E (unknown origin) upto 1 uM by surface plasmon resonance analysis
Homo sapiens = species: Homo sapiens; experiment: Binding affinity to KRAS Q61H mutant (unknown origin) using FAM-labelled peptide as substrate in presence of Tween20 by fluorescence polarization assay
A549 = experiment: Antiproliferation activity against human A549 cells assessed as measuring ATP content at > 20 uM measured after 72 hrs by CellTiter-Glo analysis; assay type: functional, cell-based; conditions: dose microM >20, time 72.0 hrs
GTPase KRas [12] = target: GTPase KRas (Homo sapiens, UniProt P01116, G12D); experiment: as §1
GTPase KRas [13] = target: T1, GTPase KRas (Homo sapiens, UniProt P01116); experiment: Binding affinity to wild type KRAS (unknown origin) using FAM-labelled peptide as substrate in presence of Tween20 by fluorescence polarization assay
Target sequence in this assay (P01116 whole entry, looked up): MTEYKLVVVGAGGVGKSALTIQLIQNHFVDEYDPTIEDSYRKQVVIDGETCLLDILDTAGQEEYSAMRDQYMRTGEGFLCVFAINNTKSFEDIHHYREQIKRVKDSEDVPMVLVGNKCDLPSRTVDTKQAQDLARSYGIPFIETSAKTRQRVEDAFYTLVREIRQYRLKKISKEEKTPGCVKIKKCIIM

[14] = target: E3 ubiquitin-protein ligase Mdm2 (Homo sapiens) (UniProt Q00987); experiment: Binding affinity to MDM2 (unknown origin) in presence of FAM-labelled peptides at 1 uM by surface plasmon resonance analysis
GTPase KRas [15] = target: T1, GTPase KRas; experiment: Binding affinity to wild type KRAS (unknown origin) using FAM-labelled peptide as substrate in absence of Tween20 by fluorescence polarization assay
Target sequence in this assay (P01116 whole entry): as the sequence (P01116 whole entry, looked up) above

GTPase KRas [16] = target: T1, GTPase KRas; experiment: Inhibition of KRAS in human U2OS cells assessed as inhibition in phosphorylation of ERK at 20 uM incubated for 15 mins by Western blot analysis; assay type: cell-based
Target sequence in this assay (P01116 whole entry, looked up): as above

[17] = target: E3 ubiquitin-protein ligase Mdm2 (Homo sapiens) (UniProt Q00987); experiment: Binding affinity to MDM2 (unknown origin) upto 1 uM by surface plasmon resonance analysis; conditions: dose microM <=1
[18] = system: GTPase KRas (Homo sapiens), P01116 [G12D]; experiment: Binding affinity to KRAS G12D mutant (unknown origin) upto 1 uM by surface plasmon resonance analysis; conditions: dose microM <=1
[19] = system: GTPase KRas (Homo sapiens), P01116 [G12D]; experiment: Binding affinity to KRAS G12D mutant (unknown origin) by isothermal titration calorimetry
[20] = system: GTPase KRas (Homo sapiens), P01116 [G12D]; experiment: Binding affinity to KRAS G12D mutant (unknown origin) in presence of FAM-labelled peptide at 1 uM by surface plasmon resonance analysis
U2OS = experiment: Antiproliferation activity against human U2OS cells assessed as measuring ATP content at > 20 uM measured after 72 hrs by CellTiter-Glo analysis; assay type: functional, cell-based; conditions: dose microM >20, time 72.0 hrs
[21] = system: GTPase KRas (Homo sapiens), P01116 [G12D]; experiment: Binding affinity to KRAS G12D mutant (unknown origin) assessed as change in melting temperature by SYPRO orange dye based thermal shift assay
[22] = system: GTPase KRas (Homo sapiens), P01116 [G12V]; experiment: Binding affinity to KRAS G12V mutant (unknown origin) by isothermal titration calorimetry
[23] = target: Eukaryotic translation initiation factor 4E (Homo sapiens) (UniProt P06730); experiment: Binding affinity to eIF4E (unknown origin) in presence of peptides at 300 nM by surface plasmon resonance analysis

Chain of GTPase KRas (Homo sapiens), P01116 [G12D] (P01116 whole entry G12D, looked up): as the sequence (P01116 whole entry, looked up) above, with G12D counted along it
Chain of E3 ubiquitin-protein ligase Mdm2 (Homo sapiens) (Q00987 whole entry, looked up): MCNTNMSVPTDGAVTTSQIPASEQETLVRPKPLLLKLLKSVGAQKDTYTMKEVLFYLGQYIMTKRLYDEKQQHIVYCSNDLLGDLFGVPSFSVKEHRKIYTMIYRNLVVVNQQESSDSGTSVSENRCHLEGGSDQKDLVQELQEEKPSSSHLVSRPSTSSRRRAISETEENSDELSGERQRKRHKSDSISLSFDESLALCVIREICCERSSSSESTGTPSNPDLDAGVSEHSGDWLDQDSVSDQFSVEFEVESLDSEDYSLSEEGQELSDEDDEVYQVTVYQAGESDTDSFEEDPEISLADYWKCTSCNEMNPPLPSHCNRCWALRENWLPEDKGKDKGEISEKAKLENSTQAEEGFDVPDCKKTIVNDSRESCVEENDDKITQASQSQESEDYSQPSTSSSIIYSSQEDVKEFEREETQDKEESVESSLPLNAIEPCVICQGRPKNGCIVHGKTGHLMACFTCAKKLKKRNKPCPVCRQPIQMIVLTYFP
Chain of Eukaryotic translation initiation factor 4E (Homo sapiens) (P06730 whole entry): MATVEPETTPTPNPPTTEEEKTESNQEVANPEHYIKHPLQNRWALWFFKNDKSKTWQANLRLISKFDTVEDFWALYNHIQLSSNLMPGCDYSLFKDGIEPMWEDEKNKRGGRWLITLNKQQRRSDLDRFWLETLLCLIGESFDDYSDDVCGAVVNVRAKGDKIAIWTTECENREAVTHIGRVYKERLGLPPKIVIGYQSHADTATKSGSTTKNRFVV
Chain of GTPase KRas (Homo sapiens, UniProt P01116, G12D) (P01116 whole entry G12D): as the sequence (P01116 whole entry, looked up) above, with G12D counted along it
Chain of GTPase KRas (Homo sapiens), P01116 [G12V] (P01116 whole entry G12V): as the sequence (P01116 whole entry, looked up) above, with G12V counted along it

## C[C@H]1NC(=O)[C@H](CCCNC(=N)N)NC(=O)[C@H](Cc2c[nH]c3ccccc23)NC(=O)[C@H](CCCNC(=N)N)NC(=O)[C@H](Cc2ccc(F)cc2)NC(=O)[C@H](CCCNC(=N)N)NC(=O)[C@@H](Cc2ccc3ccccc3c2)NC(=O)[C@H](CCCNC(=N)N)NC(=O)[C@H](CCCNC(=N)N)NC(=O)[C@H](CCC(N)=O)NC1=O (cyclo(RR[d2Nal]R[Phe(4-F)]RWR[dA]Q))
HCT-116 [1]
  Activity: < 10%

## CC(=O)N[C@@H](CC(C)C)C(=O)N[C@H](C(=O)N[C@@H](Cc1ccccc1)C(=O)N[C@]1(C)CCCCCC/C=C/CCC[C@@](C)(C(=O)N[C@@H](CO)C(=O)N[C@@H](C)C(=O)N[C@@H](C)C(N)=O)NC(=O)[C@H](CC2CCC2)NC(=O)[C@H](CC(C)C)NC(=O)[C@H](CCC(N)=O)NC(=O)[C@H](Cc2c[nH]c3ccccc23)NC(=O)[C@H](Cc2ccc(O)cc2)NC(=O)[C@H](CCC(=O)O)NC1=O)[C@@H](C)O
HCT-116 [1]
  Activity: < 10%

## CC(=O)NCCCC[C@H](N)C(=O)N[C@@H](CCCCN)C(=O)N[C@@H](CCCNC(=N)N)C(=O)N[C@@H](Cc1ccc(O)cc1)C(=O)N[C@@H](CO)C(=O)N[C@@H](CCCNC(=N)N)C(=O)N[C@@]1(C)CCC/C=C/CCC[C@@](C)(C(=O)N[C@@H](Cc2ccccc2)C(N)=O)NC(=O)[C@H](C(C)C)NC(=O)[C@H](C(C)C)NC(=O)[C@H](Cc2ccccc2)NC1=O (H-K(Ac)KRYSR[S5]FVV[S5]F-NH2; staple (E) 7-11)
HCT-116 [2]
  EC50: 20 µM

## CC[C@H](C)[C@H](NC(=O)[C@]1(C)CCC/C=C/CCC[C@](C)(NC(=O)CNC(=O)[C@H](Cc2ccccc2)NC(=O)[C@H](Cc2ccccc2)NC(=O)[C@H](CCCNC(=N)N)NC(=O)[C@H](CCCNC(=N)N)NC(C)=O)C(=O)N[C@@H](Cc2ccc(O)cc2)C(=O)N[C@@H](CC(C)C)C(=O)N[C@@H]([C@@H](C)O)C(=O)N1)C(=O)N[C@@H](CC(C)C)C(=O)N[C@@H](CCCCN)C(=O)N[C@H](C(=O)N[C@@H](CCC(=O)O)C(=O)N[C@@H](CCC(=O)O)C(=O)NCC(=O)N[C@@H](CC(N)=O)C(N)=O)[C@@H](C)O
[3]
  Activity: inactive
[4]
  Activity: Active
[5]
  Activity: 1200 nm
HCT-116 [1]
  Activity: < 10%
[6]
  Activity: Active
[7]
  Activity: Not Active
[8]
  Activity: inactive
[9]
  Activity: Active

## CC[C@H](C)[C@H](NC(=O)CNC(=O)[C@H](Cc1ccccc1)NC(=O)[C@H](Cc1ccccc1)NC(=O)[C@H](CCCNC(=N)N)NC(=O)[C@H](CCCNC(=N)N)NC(C)=O)C(=O)N[C@@]1(C)CCC/C=C/CCC[C@@](C)(C(=O)N[C@@H](CC(C)C)C(=O)N[C@@H](CCCCN)C(=O)N[C@H](C(=O)N[C@@H](CCC(=O)O)C(=O)N[C@@H](CCC(=O)O)C(=O)NCC(=O)N[C@@H](CC(N)=O)C(N)=O)[C@@H](C)O)NC(=O)[C@H](CC(N)=O)NC(=O)[C@H]([C@@H](C)O)NC(=O)[C@H](CC(C)C)NC1=O
[10]
  Activity: Active
[11]
  Activity: inactive
HCT-116 [2]
  EC50: 10 µM
Homo sapiens
  Activity: inactive
A549
  Activity: Active
GTPase KRas [12]
  Kd: 0.43 µM
GTPase KRas [13]
  Activity: inactive
[14]
  Activity: Active
[5]
  Activity: 350 nm
GTPase KRas [15]
  Kd: 0.43 µM
GTPase KRas [16]
  inhibition: Active
[17]
  Activity: inactive
[6]
  Activity: Active
[7]
  Activity: Not Active
[18]
  Activity: inactive
[9]
  Activity: Active
[19]
  Activity: inactive
[20]
  Activity: inactive
U2OS
  Activity: Active

## C=CCCC[C@](C)(NC(=O)[C@H](CC(N)=O)NC(=O)[C@@H](NC(=O)[C@H](CC(C)C)NC(=O)[C@](C)(CCCC=C)NC(=O)[C@@H](NC(=O)CNC(=O)[C@H](Cc1ccccc1)NC(=O)[C@H](Cc1ccccc1)NC(=O)[C@H](CCCNC(=N)N)NC(=O)[C@H](CCCNC(=N)N)NC(C)=O)[C@@H](C)CC)[C@@H](C)O)C(=O)N[C@@H](CC(C)C)C(=O)N[C@@H](CCCCN)C(=O)N[C@H](C(=O)N[C@@H](CCC(=O)O)C(=O)N[C@@H](CCC(=O)O)C(=O)NCC(=O)N[C@@H](CC(N)=O)C(N)=O)[C@@H](C)O
HCT-116 [2]
  EC50: 8 µM

## CCCC[C@H]1NC(=O)[C@@H](Cc2ccc(F)cc2)NC(=O)[C@H](CCCNC(=N)N)NC(=O)[C@@H](Cc2ccc3ccccc3c2)NC(=O)[C@H](CCCNC(=N)N)NC(=O)[C@H](CCCNC(=N)N)NC(=O)[C@@H](CCCNC(=N)N)NC(=O)[C@@H](C)NC(=O)[C@H](C(C)(C)C)NC(=O)[C@H](Cc2c[nH]c3ccccc23)NC(=O)[C@H](CCC(N)=O)NC1=O
[21]
  ΔTm: -5.9 °C

## CCCC[C@H]1NC(=O)[C@H](Cc2ccc(F)cc2)NC(=O)[C@H](CCCNC(=N)N)NC(=O)[C@@H](Cc2ccc3ccccc3c2)NC(=O)[C@H](CCCNC(=N)N)NC(=O)[C@H](CCCNC(=N)N)NC(=O)[C@H](CCCNC(=N)N)NC(=O)[C@H](C)NC(=O)[C@H]([C@@H](C)O)NC(=O)[C@@H](Cc2c[nH]c3ccccc23)NC(=O)[C@@H](CCC(N)=O)NC1=O
[10]
  Activity: Active
[11]
  Activity: inactive
HCT-116 [2]
  EC50: 30 µM
[22]
  Activity: inactive
A549
  Activity: Active
[14]
  Activity: Active
GTPase KRas [16]
  Activity: inactive
[17]
  Activity: inactive
[7]
  Activity: Not Active
[18]
  Activity: inactive
[19]
  Activity: inactive
U2OS
  Activity: Active

## CC(=O)N[C@@H](CCCCN)C(=O)N[C@@H](CCCCN)C(=O)N[C@@H](CCCNC(=N)N)C(=O)N[C@@H](Cc1ccc(O)cc1)C(=O)N[C@@H](CO)C(=O)N[C@@H](CCCNC(=N)N)C(=O)NC(C)(C)C(=O)N[C@@H](CCC(N)=O)C(=O)N[C@@H](CC(C)C)C(=O)N[C@@H](CC(C)C)C(=O)NC(C)(C)C(=O)N[C@@H](CC(C)C)C(N)=O
[23]
  Activity: Active
HCT-116 [1]
  Activity: < 10%
[20]
  Activity: inactive

## CC(=O)N[C@@H](CC(C)C)C(=O)N[C@H](C(=O)N[C@@H](Cc1ccccc1)C(=O)N[C@]1(C)CCCCCC/C=C/CCC[C@@](C)(C(=O)N[C@H](CO)C(=O)N[C@H](C)C(=O)N[C@H](C)C(N)=O)NC(=O)[C@@H](CC2CCC2)NC(=O)[C@H](CC(C)C)NC(=O)[C@H](CCC(N)=O)NC(=O)[C@H](Cc2c[nH]c3ccccc23)NC(=O)[C@H](Cc2ccc(O)cc2)NC(=O)[C@H](CCC(=O)O)NC1=O)[C@@H](C)O
[20]
  Activity: inactive
